According to patent publication US9474790B2, “Stable, protracted GLP-1/glucagon receptor co-agonists for medical use” (Novo Nordisk A/S, priority 2013, dated 2016):
Numbered stars: 1 amine (or outer) side, 2 acyl side, 3 side chain; on linkers, the order of the positions; unused ones are H or OH. Bridge positions count the residues as written; N and C are the ends. Square brackets hold non-standard residues; d marks the D form. Side chains are listed from the residue outwards. Peptide text beside a SMILES is read from it. I, II: the chains in the order shown. * marks the point of attachment. C18 diacid = O=C(O)CCCCCCCCCCCCCCCCC(=O)*; γGlu = O=C(O)[C@H](CCC(=O)[*:2])N[*:1]; AEEA = NCCOCCOCC(=O)O; Aib = CC(C)(N)C(=O)O

These molecules were tested against T1, human GLP-1 receptor (Homo sapiens, UniProt P43220) (assay: GLP-1 receptor binding, 125I-GLP-1 displacement SPA on isolated membranes). Conditions: displacement of 125I-GLP-1 from membranes; read-out: IC50 GLP-1R.
T1 construct: expressed in transfected cells; host or cells: BHK cells (parent BHKTS13), clone FCW467-12A/KZ10-1, with CRE luciferase
T1 sequence (P43220 24-463): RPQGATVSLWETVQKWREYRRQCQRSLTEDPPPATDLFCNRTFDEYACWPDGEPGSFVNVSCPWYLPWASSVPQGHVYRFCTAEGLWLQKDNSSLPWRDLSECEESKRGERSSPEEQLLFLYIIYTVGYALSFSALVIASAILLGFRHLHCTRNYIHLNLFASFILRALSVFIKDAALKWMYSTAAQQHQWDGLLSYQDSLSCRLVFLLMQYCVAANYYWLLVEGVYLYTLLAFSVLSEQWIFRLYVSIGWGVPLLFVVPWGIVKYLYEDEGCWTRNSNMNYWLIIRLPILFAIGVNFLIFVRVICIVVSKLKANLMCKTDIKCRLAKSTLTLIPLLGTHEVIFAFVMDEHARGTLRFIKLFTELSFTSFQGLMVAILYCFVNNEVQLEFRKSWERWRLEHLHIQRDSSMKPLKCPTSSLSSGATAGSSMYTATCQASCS
In short: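 SPA displacement of 125I-GLP-1(7-36)NH2 from membranes of BHK cells expressing human GLP-1 receptor, with WGA beads, in 50 mM HEPES, 5 mM EGTA, 5 mM MgCl2, 0.005% Tween 20, pH 7.4. Incubated 2 h at 30°C; IC50 by non-linear regression, run at ≤0.001% or 2.0% final serum albumin.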

IC50 [nM] | SMILES
1.5 | CC(C)C[C@H](NC(=O)[C@H](Cc1c[nH]c2ccccc12)NC(=O)[C@H](C)NC(=O)[C@@H](NC(=O)[C@H](Cc1ccccc1)NC(=O)[C@H](CCC(=O)O)NC(=O)[C@H](CCCNC(=N)N)NC(=O)[C@H](C)NC(=O)[C@H](CCCNC(=N)N)NC(=O)[C@H](CCCNC(=N)N)NC(=O)[C@H](CO)NC(=O)[C@H](CCC(=O)O)NC(=O)[C@H](CC(C)C)NC(=O)[C@H](Cc1ccc(O)cc1)NC(=O)[C@H](CCCCN)NC(=O)[C@H](CO)NC(=O)[C@H](CC(C)C)NC(=O)[C@H](CC(=O)O)NC(=O)[C@H](CO)NC(=O)[C@@H](NC(=O)[C@H](Cc1ccccc1)NC(=O)[C@@H](NC(=O)CNC(=O)[C@H](Cc1c[nH]cn1)NC(=O)C(C)(C)NC(=O)[C@@H](N)Cc1c[nH]cn1)[C@@H](C)O)[C@@H](C)O)C(C)C)C(=O)N[C@@H](CC(C)C)C(=O)N[C@@H](CCCCNC(=O)CC[C@H](NC(=O)COCCOCCNC(=O)COCCOCCNC(=O)CC[C@H](NC(=O)CC[C@H](NC(=O)CCCCCCCCCCCCCCCCC(=O)O)C(=O)O)C(=O)O)C(=O)O)C(=O)N[C@H](C(N)=O)[C@@H](C)O [Example 31, N^ε28-[(4S)-4-carboxy-4-[[2-[2-[2-[[2-[2-[2-[[(4S)-4-carboxy-4-[[(4S)-4-carboxy-4-(17-carboxyheptadecanoylamino)butanoyl]amino]butanoyl]amino]ethoxy]ethoxy]acetyl]amino]ethoxy]ethoxy]acetyl]amino]butanoyl]-[Aib2,His3,Leu10,Glu15,Arg20,Glu21,Ala24,Leu27, Lys28]-Glucagon amide] (H-H[Aib]HGTFTSDLSKYLESRRAREFVAWLLK([γGlu-AEEA-AEEA-γGlu-γGlu-C18 diacid])T-NH2; N-terminus assumed)
0.6 | CC(C)C[C@H](NC(=O)[C@H](Cc1ccc(O)cc1)NC(=O)[C@H](CCCCN)NC(=O)[C@H](CO)NC(=O)[C@H](CC(C)C)NC(=O)[C@H](CC(=O)O)NC(=O)[C@H](CO)NC(=O)[C@@H](NC(=O)[C@H](Cc1ccccc1)NC(=O)[C@@H](NC(=O)CNC(=O)[C@H](Cc1c[nH]cn1)NC(=O)C(C)(C)NC(=O)[C@@H](N)Cc1c[nH]cn1)[C@@H](C)O)[C@@H](C)O)C(=O)N[C@@H](CCC(=O)O)C(=O)N[C@@H](CO)C(=O)N[C@@H](CCCNC(=N)N)C(=O)N[C@@H](CCCNC(=N)N)C(=O)N[C@@H](C)C(=O)N[C@@H](CCCNC(=N)N)C(=O)N[C@@H](CCC(=O)O)C(=O)N[C@@H](Cc1ccccc1)C(=O)N[C@H](C(=O)N[C@@H](CCC(N)=O)C(=O)N[C@@H](Cc1c[nH]c2ccccc12)C(=O)N[C@@H](CC(C)C)C(=O)N[C@@H](CC(C)C)C(=O)N[C@@H](CCCCNC(=O)CC[C@H](NC(=O)CC[C@H](NC(=O)COCCOCCNC(=O)COCCOCCNC(=O)CC[C@H](NC(=O)CCCCCCCCCCCCCCCCC(=O)O)C(=O)O)C(=O)O)C(=O)O)C(=O)N[C@H](C(N)=O)[C@@H](C)O)C(C)C [Example 33, N^ε28-[(4S)-4-carboxy-4-[[(4S)-4-carboxy-4-[[2-[2-[2-[[2-[2-[2-[[(4S)-4-carboxy-4-(17-carboxyheptadecanoylamino)butanoyl]amino]ethoxy]ethoxy]acetyl]amino]ethoxy]ethoxy]acetyl]amino]butanoyl]amino]butanoyl]-[Aib2,His3,Leu10,Glu15,Arg20,Glu21,Leu27,Lys28]-Glucagon amide] (H-H[Aib]HGTFTSDLSKYLESRRAREFVQWLLK([γGlu-γGlu-AEEA-AEEA-γGlu-C18 diacid])T-NH2; N-terminus assumed)
0.2 | CC(C)C[C@H](NC(=O)[C@H](Cc1ccc(O)cc1)NC(=O)[C@H](CCCCN)NC(=O)[C@H](CO)NC(=O)[C@H](CC(C)C)NC(=O)[C@H](CC(=O)O)NC(=O)[C@H](CO)NC(=O)[C@@H](NC(=O)[C@H](Cc1ccccc1)NC(=O)[C@@H](NC(=O)CNC(=O)[C@H](Cc1c[nH]cn1)NC(=O)C(C)(C)NC(=O)[C@@H](N)Cc1c[nH]cn1)[C@@H](C)O)[C@@H](C)O)C(=O)N[C@@H](CCC(=O)O)C(=O)N[C@@H](CO)C(=O)N[C@@H](CCCNC(=N)N)C(=O)N[C@@H](CCCNC(=N)N)C(=O)N[C@@H](C)C(=O)N[C@@H](CCCNC(=N)N)C(=O)N[C@@H](CC(=O)O)C(=O)N[C@@H](Cc1ccccc1)C(=O)N[C@H](C(=O)N[C@@H](CCC(N)=O)C(=O)N[C@@H](Cc1c[nH]c2ccccc12)C(=O)N[C@@H](CC(C)C)C(=O)N[C@@H](CC(C)C)C(=O)N[C@@H](CCCCNC(=O)CNC(=O)[C@H](CO)NC(=O)[C@H](CCC(=O)O)NC(=O)CNC(=O)[C@H](CO)NC(=O)CC[C@H](NC(=O)CC[C@H](NC(=O)CCCCCCCCCCCCCCCCC(=O)O)C(=O)O)C(=O)O)C(=O)N[C@H](C(N)=O)[C@@H](C)O)C(C)C [Example 37, N^ε28-[2-[[(2S)-2-[[(2S)-4-carboxy-2-[[2-[[(2S)-2-[[(4S)-4-carboxy-4-[[(4S)-4-carboxy-4-(17-carboxyheptadecanoylamino)butanoyl]amino]butanoyl]amino]-3-hydroxypropanoyl]amino]acetyl]amino]butanoyl]amino]-3-hydroxypropanoyl]amino]acetyl]-[Aib2,His3,Leu10,Glu15, Arg20,Leu27,Lys28]-Glucagon amide] (I: H-H[Aib]HGTFTSDLSKYLESRRARDFVQWLLKT-NH2 / II: {C18 diacid-γGlu-γGlu}-SGESG; amide I:28-II:C; N-terminus assumed)
0.2 | CC(C)C[C@H](NC(=O)[C@H](Cc1ccc(O)cc1)NC(=O)[C@H](CCCCN)NC(=O)[C@H](CO)NC(=O)[C@H](CC(C)C)NC(=O)[C@H](CC(=O)O)NC(=O)[C@H](CO)NC(=O)[C@@H](NC(=O)[C@H](Cc1ccccc1)NC(=O)[C@@H](NC(=O)CNC(=O)[C@H](CCC(N)=O)NC(=O)C(C)(C)NC(=O)[C@@H](N)Cc1c[nH]cn1)[C@@H](C)O)[C@@H](C)O)C(=O)N[C@@H](CCC(=O)O)C(=O)N[C@@H](CO)C(=O)N[C@@H](CCCCN)C(=O)N[C@@H](CCCNC(=N)N)C(=O)N[C@@H](C)C(=O)N[C@@H](CCCNC(=N)N)C(=O)N[C@@H](CCC(=O)O)C(=O)N[C@@H](Cc1ccccc1)C(=O)N[C@H](C(=O)N[C@@H](CCC(N)=O)C(=O)N[C@@H](Cc1c[nH]c2ccccc12)C(=O)N[C@@H](CC(C)C)C(=O)N[C@@H](CC(C)C)C(=O)N[C@@H](CCCCNC(=O)CC[C@H](NC(=O)CC[C@H](NC(=O)[C@H](CO)NC(=O)[C@H](CCC(=O)O)NC(=O)[C@H](CO)NC(=O)CC[C@H](NC(=O)CC[C@H](NC(=O)CCCCCCCCCCCCCCCCC(=O)O)C(=O)O)C(=O)O)C(=O)O)C(=O)O)C(=O)N[C@H](C(N)=O)[C@@H](C)O)C(C)C [Example 52] (H-H[Aib]QGTFTSDLSKYLESKRAREFVQWLLK([γGlu-γGlu-Ser-Glu-Ser-γGlu-γGlu-C18 diacid])T-NH2; N-terminus assumed)
